From ChEMBL document CHEMBL2074388 (Am J Physiol Renal Physiol, 2001) come the findings set out here.

By IC50 is commonly meant the concentration that gives 50% inhibition. Read a high IC50 as a need for much substance. Usually Ki stands for the equilibrium dissociation constant of an inhibitor or competing ligand from its target. A lower Ki goes with a stronger hold on the target. One may read the Km as the concentration of substrate that gives half-maximal velocity.

For data set [1], the target named is T1, Solute carrier family 22 member 1 (Rattus norvegicus, UniProt Q63089).
T1 sequence (Q63089 whole entry): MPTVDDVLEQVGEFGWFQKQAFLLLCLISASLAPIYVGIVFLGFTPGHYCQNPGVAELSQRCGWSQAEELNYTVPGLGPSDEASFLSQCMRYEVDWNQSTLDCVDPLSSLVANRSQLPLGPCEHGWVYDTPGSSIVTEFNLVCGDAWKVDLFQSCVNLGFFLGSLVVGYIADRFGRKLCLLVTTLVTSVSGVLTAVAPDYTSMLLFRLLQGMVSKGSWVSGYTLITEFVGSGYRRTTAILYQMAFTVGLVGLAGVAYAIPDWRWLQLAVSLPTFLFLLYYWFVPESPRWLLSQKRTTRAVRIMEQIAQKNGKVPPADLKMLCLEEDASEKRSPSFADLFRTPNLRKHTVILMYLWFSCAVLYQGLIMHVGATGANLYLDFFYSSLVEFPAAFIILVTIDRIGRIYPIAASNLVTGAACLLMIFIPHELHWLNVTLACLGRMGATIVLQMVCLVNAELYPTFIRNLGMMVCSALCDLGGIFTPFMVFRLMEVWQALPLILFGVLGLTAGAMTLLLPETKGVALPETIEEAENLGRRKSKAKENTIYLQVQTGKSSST
It is filed as functional, cell-based, Xenopus laevis, Oocyte.

Data set [2] deals with T2, Solute carrier family 22 member 2 (Rattus norvegicus, UniProt Q9R0W2).
T2 sequence (Q9R0W2 whole entry): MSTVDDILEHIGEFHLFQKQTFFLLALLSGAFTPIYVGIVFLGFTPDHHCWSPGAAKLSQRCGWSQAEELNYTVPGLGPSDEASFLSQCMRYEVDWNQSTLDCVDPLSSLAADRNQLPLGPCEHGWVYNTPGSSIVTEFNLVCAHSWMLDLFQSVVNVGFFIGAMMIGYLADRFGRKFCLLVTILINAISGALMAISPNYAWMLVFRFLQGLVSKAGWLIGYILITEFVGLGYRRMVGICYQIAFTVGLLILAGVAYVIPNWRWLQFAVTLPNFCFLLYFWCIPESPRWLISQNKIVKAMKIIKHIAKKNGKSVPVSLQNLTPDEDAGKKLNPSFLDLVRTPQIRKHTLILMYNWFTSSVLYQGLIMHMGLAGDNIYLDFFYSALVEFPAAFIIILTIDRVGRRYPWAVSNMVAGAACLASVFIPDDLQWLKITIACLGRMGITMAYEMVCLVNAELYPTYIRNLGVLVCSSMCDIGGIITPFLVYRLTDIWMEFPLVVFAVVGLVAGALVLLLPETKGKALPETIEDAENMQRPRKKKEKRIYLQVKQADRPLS
It is filed as functional, cell-based, Xenopus laevis, Oocyte.

Data set [3] concerns the target T2, Solute carrier family 22 member 2. Nature of the data set: TP_TRANSPORTER: inhibition of TEA uptake in Xenopus laevis oocytes. It is filed as functional, cell-based, Oocyte.
Data set [4] shares this target. The data set can be described thus: TP_TRANSPORTER: inhibition of TEA uptake (electrogenicity) in Xenopus laevis oocytes.
Substrate in data set [5]: N=C(N)N
The data set can be described thus: (§1) TP_TRANSPORTER: uptake in Xenopus laevis oocytes. Format: functional, cell-based, Oocyte.

Substrate in data set [6]: NCCc1c[nH]cn1
The data set can be described thus: cells, lysate or membranes named.

Substrate in data set [7]: CNC(=O)c1cccnc1
The data set is described as §1. It is filed as functional, cell-based, Oocyte.

Substrate in data set [8]: C[n+]1ccc(-c2ccccc2)cc1
The data set is described as §1. Format: functional, cell-based, Oocyte.

Substrate in data set [9]: C[N+](C)(C)CCO
The data set can be described thus: cells, lysate or membranes named.

Substrate in data set [10]: CC[N+](CC)(CC)CC
The data set can be described thus: cells, lysate or membranes named.

Turning to `O=C(O)CCC(=O)C(=O)O` [ALPHA-KETOGLUTARIC ACID], the figures for the concentration for half-maximal inhibition (IC50) in data set [1] and in [2] were 740 µM and 700 µM, respectively.

`Nc1ccc(C(=O)NCC(=O)O)cc1` [AMINOHIPPURIC ACID]: the 50% inhibitory concentration (IC50) amounted to 1300 µM in data set [1] and 4500 µM in data set [2].

`C[C@]12C[C@H](O)[C@H]3[C@@H](CCC4=CC(=O)CC[C@@]43C)[C@@H]1CC[C@@H]2C(=O)CO` [CORTICOSTERONE]: the figures for the IC50 in data set [1] and in data set [2] were 151 µM and 4 µM, respectively.

`CC[n+]1c(CC2C=C(C)N=C(c3ccccc3)N2C)ccc2ccccc21` (stereo unspecified) [Cyanine-863]: the results for the half-inhibitory concentration (IC50) in data set [1] and in [2] were 0.51 µM and 2.56 µM, respectively.

In the case of `CNCCCN1c2ccccc2CCc2ccccc21` [DESIPRAMINE], the IC50 in [2] is 10 µM.

With `N=C(N)N` [GUANIDINE], the IC50 came to 4470 µM in data set [1] and 171 µM in data set [2].

For the molecule `CC(C)C(c1ccccc1)C(O)CC[N+]1(C)CCCCC1` (stereo unspecified) [MEPIPERPHENIDOL BROMIDE], the IC50 in [1] worked out at 7.1 µM; in [2], 474 µM.

In data set [1], `COc1cc(C(O)CNC(C)C)ccc1O` (stereo unspecified) [METIPRENALINE] showed a concentration for half-maximal inhibition (IC50) of 37 µM.

In the case of `CCCN(CCC)S(=O)(=O)c1ccc(C(=O)O)cc1` [PROBENECID], the IC50 in [1] was determined as 1640 µM; in data set [2], 1700 µM.

In data set [2], `CCN(CC)CCNC(=O)c1ccc(N)cc1` [PROCAINAMIDE] showed a half-maximal inhibitory concentration (IC50) of 445 µM.

As for `C=C[C@H]1C[N@@]2CC[C@H]1C[C@@H]2[C@@H](O)c1ccnc2ccc(OC)cc12` [QUINIDINE], the IC50 in data set [2] turned out to be 14.6 µM.

In the case of `C=C[C@H]1C[N@@]2CC[C@H]1C[C@H]2[C@H](O)c1ccnc2ccc(OC)cc12` [QUININE], the inhibitory constant (Ki) in data set [3] amounted to 55 µM.

On to `CCCC[N+](CCCC)(CCCC)CCCC` [TETRABUTHYLAMMONIUM], for which the Ki in data set [4] was 12 µM.

The molecule `C[N+](C)(C)C` [TETRAMETHYLAMMONIUM] returned an IC50 in data set [2] of 630 µM.

As for `CCC[N+](CCC)(CCC)CCC` [TETRAPROPYLAMMONIUM], the IC50 in [1] came to 11.3 µM; in data set [2], 6.2 µM.

B1: Solute carrier family 22 member 1 (Rattus norvegicus) (protein)
chain: MPTVDDVLEQVGEFGWFQKQAFLLLCLISASLAPIYVGIVFLGFTPGHYCQNPGVAELSQRCGWSQAEELNYTVPGLGPSDEASFLSQCMRYEVDWNQSTLDCVDPLSSLVANRSQLPLGPCEHGWVYDTPGSSIVTEFNLVCGDAWKVDLFQSCVNLGFFLGSLVVGYIADRFGRKLCLLVTTLVTSVSGVLTAVAPDYTSMLLFRLLQGMVSKGSWVSGYTLITEFVGSGYRRTTAILYQMAFTVGLVGLAGVAYAIPDWRWLQLAVSLPTFLFLLYYWFVPESPRWLLSQKRTTRAVRIMEQIAQKNGKVPPADLKMLCLEEDASEKRSPSFADLFRTPNLRKHTVILMYLWFSCAVLYQGLIMHVGATGANLYLDFFYSSLVEFPAAFIILVTIDRIGRIYPIAASNLVTGAACLLMIFIPHELHWLNVTLACLGRMGATIVLQMVCLVNAELYPTFIRNLGMMVCSALCDLGGIFTPFMVFRLMEVWQALPLILFGVLGLTAGAMTLLLPETKGVALPETIEEAENLGRRKSKAKENTIYLQVQTGKSSST
On to B1, for which the Michaelis-Menten constant (Km) is 1660 µM in data set [5] and 300 µM in data set [6].

B2: Solute carrier family 22 member 2 (Rattus norvegicus) (protein)
chain: MSTVDDILEHIGEFHLFQKQTFFLLALLSGAFTPIYVGIVFLGFTPDHHCWSPGAAKLSQRCGWSQAEELNYTVPGLGPSDEASFLSQCMRYEVDWNQSTLDCVDPLSSLAADRNQLPLGPCEHGWVYNTPGSSIVTEFNLVCAHSWMLDLFQSVVNVGFFIGAMMIGYLADRFGRKFCLLVTILINAISGALMAISPNYAWMLVFRFLQGLVSKAGWLIGYILITEFVGLGYRRMVGICYQIAFTVGLLILAGVAYVIPNWRWLQFAVTLPNFCFLLYFWCIPESPRWLISQNKIVKAMKIIKHIAKKNGKSVPVSLQNLTPDEDAGKKLNPSFLDLVRTPQIRKHTLILMYNWFTSSVLYQGLIMHMGLAGDNIYLDFFYSALVEFPAAFIIILTIDRVGRRYPWAVSNMVAGAACLASVFIPDDLQWLKITIACLGRMGITMAYEMVCLVNAELYPTYIRNLGVLVCSSMCDIGGIITPFLVYRLTDIWMEFPLVVFAVVGLVAGALVLLLPETKGKALPETIEDAENMQRPRKKKEKRIYLQVKQADRPLS
Take B2: the Michaelis constant (Km) in data set [7] stood at 245 µM; in data set [8] it was 17 µM; in [5], 172 µM; in data set [6], 278 µM; in [9], 604 µM; in data set [10], 91 µM.
